Read-outs that look alike come from different tables or passages of the source.
What was measured:
[1] = biological target: ACE2: SARS-CoV-2 Spike RBD (UniProt P0DTC2+Q9BYF1); assay: ACE2: SARS-CoV-2 Spike RBD inhibitor screening assay; type: binding, human ACE2 / SARS-CoV-2
[2] = test system: pseudotyped lentiviral particles expressing Spike glycoprotein of SARS-CoV-2; assay: microbe, parasite or virus in culture; type: cell-based
[3] = test system: SARS-CoV-2 isolate USA-WI1/2020; assay: Antiviral activity against live SARS-CoV-2 in UNCN1T cells; type: cell-based; details: for antiviral efficacy against live SARS-CoV-2 (in words): UNCN1T cells, compared to DMSO vehicle control, data not shown
[4] = test system: SARS-CoV-2 isolate USA-WI1/2020; assay: microbe, parasite or virus in culture; type: cell-based
[5] = test system: SARS-CoV-2; type: cell-based
[6] = MTT cell viability assay, Vero-STAT1 knockout; type: cell-based; details: African green monkey
[7] = test system: SARS-CoV-2 isolate USA-WI1/2020; type: cell-based
[8] = Severe acute respiratory syndrome coronavirus 2, read-out: IC50, inhibition of SARS-CoV-2 replication
[9] = read-out: IC50, inhibition of SARS-CoV-2 replication

Structure (SMILES) | IC50 [1] | pseudotype viral entry inhibition (in words) [2] | antiviral efficacy against live SARS-CoV-2 (in words) [3] | SARS-CoV-2 infection compared with vehicle controls (in words) [5] | CC50 at 72 h [6] | also measured
OC(CNCCNc1ncccc1C(F)(F)F)Cn1ccc2ccccc21 (stereo not drawn) [MU-UNMC-7, 1-(1H-indol-1-yl)-3-((2-((3-(trifluoromethyl)pyridin-2-yl)amino)ethyl)amino)propan-2-ol] | > 5000 nM | failed to prevent the pseudovirus entry | did not see any reduction in viral replication kinetics |  |  | 
CN1C(=O)c2ccccc2[S+]([O-])c2cc([N+](=O)[O-])ccc2S1(=O)=O (stereo not drawn) [MU-UNMC-1, 6-methyl-2-nitrodibenzo[d,g][1,6,2]dithiazocin-7(6H)-one 5,5,12-trioxide] | < 250 nM | low level of viral entry inhibition with a slight increase at higher concentrations |  | no significant difference | 6210 nM | IC50 [4, 8]: 5350 nM; IC50 [4, 9]: 2940 nM; IC50 [3, 8]: 670 nM; IC50 [3, 9]: 1160 nM
CCC(CC)COC(=O)[C@H](C)N[P@](=O)(OC[C@H]1O[C@@](C#N)(c2ccc3c(N)ncnn23)[C@H](O)[C@@H]1O)Oc1ccccc1 [RDV, remdesivir] |  |  |  |  |  | reduction in dosages in combination [7]: 2.3 fold; dose reduction index (DRI) ([7]; RDV/MU-UNMC-2 combination, UNCN1T cells, CompuSyn): 2.33
CN(C)/C=C1\N=C(c2cccnc2Oc2ccc(Cl)cc2)OC1=O [MU-UNMC-8, (Z)-2-(2-(4-chlorophenoxy)pyridin-3-yl)-4-((dimethylamino)methylene)oxazol-5(4H)-one] | > 5000 nM | failed to prevent the pseudovirus entry | did not see any reduction in viral replication kinetics |  |  | 
CCn1c(SCC(=O)N2CCCc3ccccc32)nnc1-c1cccs1 [MU-UNMC-6, 1-(3,4-dihydroquinolin-1(2H)-yl)-2-((4-ethyl-5-(thiophen-2-yl)-4H-1,2,4-triazol-3-yl)thio) ethanone] | 1910 nM | failed to prevent the pseudovirus entry | did not see any reduction in viral replication kinetics |  |  | 
O=C1Nc2cc(C(F)(F)F)ccc2Oc2ccsc21 [MU-UNMC-2, 7-(trifluoromethyl) benzo[b]thieno[2,3-f][1,4]oxazepin-10(9H)-one] |  | significant and robust viral entry inhibition across a broad concentration range |  | no significant difference | 7130 nM | reduction in dosages in combination ([7]; RDV/MU-UNMC-2 combination, human bronchial epithelial cell line): 28.3 fold; IC50 ([2]; Severe acute respiratory syndrome coronavirus 2, 48 h, read-out: IC50, inhibition of entry of pseudotyped lentiviral particles): 840 nM
